From ChEMBL document CHEMBL1145231, “2-Alkoxydihydrocinnamates as PPAR agonists. Activity modulation by the incorporation of phenoxy substituents” (Bioorg Med Chem Lett, 2005) come the findings set out here.

For one experiment, the species on record is Rattus norvegicus. The experiment can be described thus: animal or person. Type of experiment: functional.
The target of experiment [1] is T1, Peroxisome proliferator-activated receptor alpha (Homo sapiens, UniProt Q07869).
T1 sequence (Q07869 whole entry): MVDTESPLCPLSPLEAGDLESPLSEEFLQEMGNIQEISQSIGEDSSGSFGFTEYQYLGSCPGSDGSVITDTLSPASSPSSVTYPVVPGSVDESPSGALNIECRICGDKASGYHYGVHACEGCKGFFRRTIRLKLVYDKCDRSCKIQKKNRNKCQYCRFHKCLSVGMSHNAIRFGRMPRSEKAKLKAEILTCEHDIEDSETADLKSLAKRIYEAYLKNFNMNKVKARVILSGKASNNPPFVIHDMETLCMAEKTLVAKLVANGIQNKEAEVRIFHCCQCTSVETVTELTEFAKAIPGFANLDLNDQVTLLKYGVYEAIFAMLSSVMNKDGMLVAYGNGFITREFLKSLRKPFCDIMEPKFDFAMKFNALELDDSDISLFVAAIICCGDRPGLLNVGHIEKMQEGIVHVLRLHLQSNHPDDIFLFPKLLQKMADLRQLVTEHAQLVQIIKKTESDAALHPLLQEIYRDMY

The target of experiment [2] is T2, Peroxisome proliferator-activated receptor delta (Homo sapiens, UniProt Q03181).
T2 sequence (Q03181 whole entry): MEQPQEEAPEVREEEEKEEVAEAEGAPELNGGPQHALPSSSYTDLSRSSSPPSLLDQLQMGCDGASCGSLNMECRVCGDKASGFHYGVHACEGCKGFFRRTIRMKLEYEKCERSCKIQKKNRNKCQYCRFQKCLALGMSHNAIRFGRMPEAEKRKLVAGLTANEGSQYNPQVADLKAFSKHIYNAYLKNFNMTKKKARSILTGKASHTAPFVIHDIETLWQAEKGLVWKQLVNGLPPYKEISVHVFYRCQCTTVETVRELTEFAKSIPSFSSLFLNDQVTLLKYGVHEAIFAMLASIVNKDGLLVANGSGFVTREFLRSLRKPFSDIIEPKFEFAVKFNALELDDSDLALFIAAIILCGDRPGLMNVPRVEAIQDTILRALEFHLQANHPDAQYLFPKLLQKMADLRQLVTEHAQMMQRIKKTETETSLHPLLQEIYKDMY

The target in experiment [3] is T1, Peroxisome proliferator-activated receptor alpha. The source holds these as a separate data set.

In turn, `COc1cc(C[C@H](OC)C(=O)O)ccc1OCCCOc1ccc(Oc2ccccc2)cc1` displayed a median effective dose (ED50) in the experiment listed under Rattus norvegicus of 0.12 mg/kg. Besides, the IC50 in experiment [1] stood at 1350 nM; in experiment [2] it was 7500 nM. In addition, the response in experiment [3] was half-maximal at 2150 nM (EC50).

Turning to `CO[C@@H](Cc1ccc(OCCCOc2ccc(C(=O)c3ccccc3)cc2)c(Cl)c1)C(=O)O`, the ED50 in the experiment listed under Rattus norvegicus worked out at 0.29 mg/kg. Moreover, the IC50 in experiment [1] was determined as 309 nM; in experiment [2], 1510 nM. This compound also returned an EC50 in experiment [3] of 2710 nM.

In the experiment filed under Rattus norvegicus, `CO[C@@H](Cc1ccc(C#CCCOc2ccc(Oc3ccccc3)cc2)cc1)C(=O)O` returned an ED50 of 0.08 mg/kg. Besides, the IC50 amounted to 1150 nM in experiment [1] and 3940 nM in experiment [2]. Also, the midpoint of the response in experiment [3], the EC50, lay at 1880 nM.

In the experiment listed under Rattus norvegicus, `CO[C@@H](Cc1ccc(C#CCCCOc2ccc(Oc3ccccc3)cc2)cc1)C(=O)O` came in with an ED50 of 0.07 mg/kg. Further, the half-inhibitory concentration (IC50) is 770 nM in experiment [1] and 4120 nM in experiment [2]. Further, a half-maximal effect in experiment [3] (EC50) was put at 2620 nM.

Turning to `CO[C@@H](Cc1ccc(OCCCOc2ccc(-c3ccccc3)cc2)cc1)C(=O)O`, the ED50 in the experiment filed under Rattus norvegicus is 1.5 mg/kg. Also, the results for the IC50 in experiment [1] and in experiment [2] were 568 nM and 1390 nM, respectively. This compound registered an EC50 in experiment [3] of 1100 nM.

For `CCO[C@@H](Cc1ccc(OCCCOc2ccc(Oc3ccccc3)cc2)cc1)C(=O)O`, in the experiment filed under Rattus norvegicus, the 50% effect level (ED50) was put at a dose of 0.015 mg/kg. Besides, the IC50 turned out to be 1690 nM in experiment [1] and 1570 nM in experiment [2]. A half-maximal response in experiment [3] (EC50) required 2750 nM.

Turning to `CO[C@@H](Cc1ccc(OCCCOc2ccc(C(=O)c3ccccc3)cc2)cc1)C(=O)O`, the ED50 in the experiment filed under Rattus norvegicus came out at 0.18 mg/kg. In addition, the IC50 in experiment [1] amounted to 470 nM; in experiment [2], 2320 nM. This compound also gave an EC50 in experiment [3] of 2870 nM.

Take `CC(C)(Oc1ccc(C(=O)c2ccc(Cl)cc2)cc1)C(=O)O` [FENOFIBRIC ACID]: the IC50 in experiment [1] was more than 10000 nM. Moreover, the EC50 in experiment [3] is more than 10000 nM.

As to `CO[C@@H](Cc1ccc(OCCCOc2ccc(Oc3ccccc3)cc2)cc1)C(=O)O` [NAVEGLITAZAR], in the experiment listed under Rattus norvegicus, the ED50 came to 0.1 mg/kg. The IC50 is 2710 nM in experiment [1] and 1920 nM in experiment [2]. In addition, a half-maximal response in experiment [3] (EC50) required 2820 nM.
